Among the test systems are A549; CAKI-1; CCRF-CEM; HCT-116; HCT-15; HOP-92; HT-29; K562; MOLT-4; Malme-3M; OVCAR-3; OVCAR-4; OVCAR-5; SF-295; SK-MEL-28; SR; TK-10; UACC-257.
Experiment in all cases: growth of human tumour cells (NCI), 48 h

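A five-concentration, 48-hour dose response in 96-well plates underlies each endpoint, interpolated linearly between surrounding concentrations. GI50: concentration for 50% inhibition of growth.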 Active and inactive are the calls of the source. Rule as the data show it: active = GI50 up to about 1.1 µM and inactive = higher. Bounds are passed on as bounds.

With `CCC(C)C(N)C(=O)NC(CC(N)=O)C(=O)NC(CC(C)C)C(=O)NC(CCCCN)C(=O)NC(C)C(=O)NC(CC(C)C)C(=O)NC(C)C(=O)NC(C)C(=O)NC(CC(C)C)C(=O)NC(C)C(=O)NC(CCCCN)C(=O)NC(CCCCN)C(=O)NC(C(=O)NC(CC(C)C)C(N)=O)C(C)CC` (configuration not stated), the GI50 with A549 is 9.93 µM (inactive); in the test on CAKI-1 it was 8.3 µM (inactive); with CCRF-CEM, 6.46 µM (inactive); in the test on HCT-116 it was 15.6 µM (inactive); in the test with HCT-15 it was 16.6 µM; in the test on HOP-92 it was 1.14 µM (inactive). Further, the GI50 in the test on HT-29 is 19.5 µM (inactive); in the test on K562, 14.7 µM (inactive); in the test on MOLT-4, 14.9 µM (inactive); in the test with Malme-3M, 5.98 µM (inactive); in the test with OVCAR-3, 8 µM (inactive); with OVCAR-4, 15.3 µM (inactive). Besides, the GI50 is 14.6 µM (inactive) with OVCAR-5; 19.8 µM (inactive) in the test on SF-295; 8.59 µM (inactive) in the test with SK-MEL-28; 19 µM (inactive) in the test with SR; 14.2 µM (inactive) in the test with TK-10; 14.2 µM (inactive) in the test with UACC-257.

As for `COc1ccc(-c2cc(-c3cc(C)ccc3O)nc(O)n2)cc1`, the GI50 with A549 is > 100 µM (inactive); with CAKI-1, > 100 µM (inactive); in the test with CCRF-CEM, > 100 µM (inactive); in the test with HCT-116, 77.1 µM (inactive); with HOP-92, 32.6 µM (inactive); in the test with HT-29, > 100 µM (inactive). Further, the GI50 in the test with K562 was > 100 µM (inactive); in the test on MOLT-4, > 100 µM (inactive); in the test on Malme-3M, > 100 µM (inactive); in the test on OVCAR-3, > 100 µM (inactive); with OVCAR-4, > 100 µM (inactive); with SF-295, 41 µM (inactive). Also, the GI50 in the test on SK-MEL-28 was > 100 µM (inactive); in the test with SR, > 100 µM (inactive); with TK-10 it was 40.8 µM (inactive); with UACC-257, > 100 µM (inactive).

In the case of `C[C@]12CCCC(=O)C1C[C@H](C(=O)O)CC2` (some centres not stated), the GI50 in the test with A549 is > 100 µM (inactive); with CAKI-1 it was > 100 µM (inactive); in the test on CCRF-CEM, > 100 µM (inactive); in the test with HCT-116 it was > 100 µM (inactive); in the test with HCT-15, above 100 µM; with HOP-92, > 100 µM (inactive). For the same compound, the GI50 with HT-29, in the test on K562, in the test with MOLT-4, in the test with Malme-3M, in the test with OVCAR-3 and in the test with OVCAR-4 was > 100 µM (inactive) each time. The GI50 with OVCAR-5, with SF-295, in the test on SK-MEL-28, with SR, with TK-10 and with UACC-257 was > 100 µM (inactive) each time.

As to `COC(=O)C(CC(=O)Nc1ccc(C)cc1)C(=O)C(=O)Nc1ccccc1C(C)C` (configuration not stated), the GI50 is > 100 µM (inactive) in the test on A549; > 100 µM (inactive) in the test on CAKI-1; > 100 µM (inactive) in the test with CCRF-CEM; > 100 µM (inactive) in the test with HCT-116; above 100 µM in the test with HCT-15; > 100 µM (inactive) in the test on HOP-92. In addition, the GI50 in the test with HT-29, in the test with K562, with MOLT-4, with Malme-3M, with OVCAR-3 and with OVCAR-4 was > 100 µM (inactive) each time. Also, the GI50 with OVCAR-5, with SF-295, with SK-MEL-28, in the test on SR, with TK-10 and with UACC-257 was > 100 µM (inactive) in each case.

As for `N#C/C(c1nc2ccccc2[nH]1)=c1\s/c(=C/c2ccccc2)c(=O)n1-c1ccccc1`, the GI50 was > 100 µM (inactive) with A549; > 100 µM (inactive) with CAKI-1; 98.9 µM (inactive) in the test on CCRF-CEM; > 100 µM (inactive) in the test with HCT-116; above 100 µM in the test on HCT-15; > 100 µM (inactive) with HOP-92. The GI50 with K562 was > 100 µM (inactive); with MOLT-4, 9.89 µM (inactive); in the test with Malme-3M, > 100 µM (inactive); with OVCAR-3 it was > 100 µM (inactive); with OVCAR-4 it was > 100 µM (inactive); in the test with OVCAR-5, > 100 µM (inactive). The GI50 in the test on SK-MEL-28, in the test with SR, with TK-10 and in the test on UACC-257 was > 100 µM (inactive) each time.

Take `Clc1cc(Cc2cc(Cl)c(Cl)c3c2OCOC3)c2c(c1Cl)COCO2`: the GI50 with A549 was 40.9 µM (inactive); in the test with CAKI-1, 22.3 µM (inactive); in the test with CCRF-CEM it was 30.1 µM (inactive); in the test on HCT-116, 36.4 µM (inactive); in the test with HCT-15, above 100 µM; with HOP-92, 16.9 µM (inactive). The GI50 with HT-29 was > 100 µM (inactive); with K562 it was 43.9 µM (inactive); with MOLT-4 it was 56.2 µM (inactive); with Malme-3M it was 40.6 µM (inactive); with OVCAR-3, 25.3 µM (inactive); in the test on OVCAR-4, 18.7 µM (inactive). For the same compound, the GI50 is > 100 µM (inactive) in the test with OVCAR-5; 26.2 µM (inactive) in the test on SF-295; > 100 µM (inactive) with SK-MEL-28; 55.2 µM (inactive) in the test on SR; 29.9 µM (inactive) with TK-10; 94 µM (inactive) in the test with UACC-257.

As for `CCCCCCCCCCNC(=S)OCCCC`, the GI50 in the test with A549 was 26 µM (inactive); in the test on CAKI-1, 25.8 µM (inactive); with CCRF-CEM, 17.1 µM (inactive); in the test on HCT-116, 18.3 µM (inactive); with HCT-15, 19.2 µM; with HOP-92, 16.7 µM (inactive). For the same compound, the GI50 in the test with HT-29 was 19.5 µM (inactive); with K562, 18.5 µM (inactive); in the test on MOLT-4 it was 14.7 µM (inactive); in the test on Malme-3M, 27.7 µM (inactive); in the test on OVCAR-4 it was 34 µM (inactive); in the test with OVCAR-5, 11.3 µM (inactive). Further, the GI50 in the test with SF-295 is 45.4 µM (inactive); with SK-MEL-28 it was 25.8 µM (inactive); in the test on SR, 17.4 µM (inactive); with TK-10, 14.7 µM (inactive); with UACC-257 it was 23.4 µM (inactive).

Take `CN(C)C(=S)/N=c1\ss/c(=N/c2ccccc2)n1C`: the GI50 with A549 is 59.2 µM (inactive); in the test on CAKI-1, 36.2 µM (inactive); with CCRF-CEM, > 100 µM (inactive); in the test with HCT-116, 38.5 µM (inactive); in the test on HCT-15, above 100 µM; in the test with HOP-92 it was 30.5 µM (inactive). In addition, the GI50 in the test with HT-29 was > 100 µM (inactive); in the test with K562, > 100 µM (inactive); in the test with MOLT-4, > 100 µM (inactive); in the test on Malme-3M, 40.5 µM (inactive); in the test on OVCAR-4 it was 50.6 µM (inactive); in the test with OVCAR-5, > 100 µM (inactive). Moreover, the GI50 in the test on SF-295 was 75.9 µM (inactive); in the test with SK-MEL-28, 64.3 µM (inactive); in the test with SR, > 100 µM (inactive); in the test on TK-10 it was > 100 µM (inactive); in the test on UACC-257 it was > 100 µM (inactive).

As for `O=C(Nc1nc2ccccc2n1Cc1ccc(Cl)cc1)NC12CC3CC(CC(C3)C1)C2`, the GI50 was 21.1 µM (inactive) in the test with A549; 34.7 µM (inactive) in the test with CAKI-1; 76.7 µM (inactive) in the test with CCRF-CEM; 19.4 µM (inactive) in the test with HCT-116; 71.6 µM with HCT-15; 19.9 µM (inactive) in the test on HOP-92. Moreover, the GI50 in the test with HT-29 was 74.3 µM (inactive); in the test on K562, 32.3 µM (inactive); in the test on MOLT-4 it was > 100 µM (inactive); in the test with Malme-3M, 19.1 µM (inactive); in the test with OVCAR-3 it was 22.6 µM (inactive); in the test with OVCAR-4 it was 8.99 µM (inactive). In addition, the GI50 in the test on OVCAR-5 was 91.2 µM (inactive); in the test with SF-295 it was 10.9 µM (inactive); in the test with SK-MEL-28, 16 µM (inactive); in the test on SR it was 27.9 µM (inactive); in the test with TK-10, 32.5 µM (inactive); in the test on UACC-257 it was 28.2 µM (inactive).

`CCCC(OCC)(OCC)OCC`: the GI50 in the test with A549 is > 100 µM (inactive); in the test with CAKI-1 it was > 100 µM (inactive); with CCRF-CEM, > 100 µM (inactive); with HCT-116, 27.5 µM (inactive); in the test on HCT-15 it was above 100 µM; with HOP-92 it was > 100 µM (inactive). Moreover, the GI50 with HT-29, with K562, in the test on MOLT-4, with Malme-3M, with OVCAR-3 and with OVCAR-4 was > 100 µM (inactive) each time. In addition, the GI50 in the test on OVCAR-5, in the test with SF-295, in the test on SK-MEL-28, with SR, with TK-10 and in the test with UACC-257 was > 100 µM (inactive) in each case.

On to `CC1=Nc2c(ccc3c2C(=O)c2ccccc2C3=O)NC(c2cccc3c2CCC3)C1` (configuration not stated), for which the GI50 was > 100 µM (inactive) in the test on A549; 6.27 µM (inactive) in the test with CAKI-1; 0.612 µM (active) with CCRF-CEM; 66.2 µM (inactive) in the test on HCT-116; 18.7 µM with HCT-15; > 65 µM (inactive) in the test with HOP-92. For the same compound, the GI50 was > 100 µM (inactive) in the test on HT-29; 21.4 µM (inactive) in the test with K562; 5.11 µM (inactive) in the test with MOLT-4; > 100 µM (inactive) in the test with Malme-3M; > 90.4 µM (inactive) in the test on OVCAR-3; > 100 µM (inactive) in the test with OVCAR-4. Also, the GI50 in the test on OVCAR-5 was > 100 µM (inactive); in the test on SF-295, > 100 µM (inactive); in the test with SK-MEL-28, > 100 µM (inactive); with SR, 11 µM (inactive); in the test on TK-10, > 100 µM (inactive); in the test with UACC-257 it was > 100 µM (inactive).

(Values after ChEMBL document CHEMBL1201862, “PubChem BioAssay data set” (2004).)
